# Test results as given in ChEMBL document CHEMBL1140846, “Convenient QSAR model for predicting the complexation of structurally diverse compounds with beta-cyclodextrins” (Bioorg Med Chem, 2009).
# Test: Binding affinity to beta cyclodextrin
row,Compound,log Ks
1,C[C@H](CCC(=O)O)[C@H]1CC[C@H]2[C@@H]3[C@H](O)C[C@@H]4C[C@H](O)CC[C@]4(C)[C@H]3CC[C@]12C [CHENODIOL],4.36
2,CCC(C)CO (stereo unspecified),2.08
3,CC(=O)Oc1cccc(CC(C)C)c1,3.83
4,CC(=O)OCC(=O)[C@@]1(O)CC[C@H]2[C@@H]3CCC4=CC(=O)C=C[C@]4(C)[C@H]3[C@@H](O)C[C@@]21C [PREDNISOLONE ACETATE],3.76
5,CC(=O)Oc1cccc(I)c1,3.07
6,NC(=O)CCC/N=C(\c1ccc(Cl)cc1)c1cc(F)ccc1O [PROGABIDE],2.53
7,O=C(O)c1ccccc1Nc1cccc(C(F)(F)F)c1 [FLUFENAMIC ACID],3.1
8,CCCCCCCCO [OCTANOL],3.17
9,C[C@H](CCC(=O)O)[C@H]1CC[C@H]2[C@@H]3[C@H](O)C[C@@H]4C[C@H](O)CC[C@]4(C)[C@H]3C[C@H](O)[C@]12C [CHOLIC ACID],3.5
10,O=C(O)/C=C/c1ccc(O)cc1 [COUMARIC ACID],2.83
11,C(=C\c1ccccc1)/CN1CCN(C(c2ccccc2)c2ccccc2)CC1 [CINNARIZINE],3.64
12,CC(=O)Oc1ccc(Cl)cc1,2.5
13,c1ccc2c(c1)Nc1ccccc1S2 [PHENOTHIAZINE],2.73
14,O=C(O)c1ccc([N+](=O)[O-])cc1 [4-NITROBENZOIC ACID],2.34
15,CC#N [ACETONITRILE],-0.27
16,CCCCC[C@H](O)/C=C/[C@@H]1[C@H]2C/C(=C/CCCC(=O)O)O[C@H]2C[C@H]1O [EPOPROSTENOL],2.94
17,c1ccc2c(c1)sc1ccccc12 [DIBENZOTHIOPHENE],3.48
18,C[C@H]1C[C@H]2[C@@H]3CCC4=CC(=O)C=C[C@]4(C)[C@@]3(F)[C@@H](O)C[C@]2(C)[C@@]1(O)C(=O)CO [BETAMETHASONE],3.73
19,c1ccc2c(c1)Nc1ccccc1O2 [PHENOXAZINE],2.69
20,CC(C)C(C)O (stereo unspecified),1.92
21,COCCO [2-METHOXYETHANOL],0.22
22,Oc1cccc(Br)c1,2.51
23,Brc1ccc(Br)cc1,2.97

row,Compound,log Ks
1,OC1CCC1 [CYCLOBUTANOL],1.18
2,C[C@]12CCC(=O)C=C1CC[C@@H]1[C@@H]2C(=O)C[C@@]2(C)[C@H]1CC[C@]2(O)C(=O)CO [CORTISONE],3.35
3,CCOC(=O)c1ccc(N)cc1 [BENZOCAINE],2.69
4,CC(=O)Oc1ccc(C)cc1,2.49
5,CN1C(=O)CN=C(c2ccccc2)c2cc([N+](=O)[O-])ccc21 [NIMETAZEPAM],1.73
6,c1ccc2nc3ccccc3nc2c1 [PHENAZINE],2.41
7,COc1cc(NS(=O)(=O)c2ccc(N)cc2)ncn1 [SULFAMONOMETHOXINE],2.48
8,Oc1cccc(I)c1,2.93
9,O=C(O)CCC(=O)c1ccc(-c2ccccc2)cc1 [FENBUFEN],2.63
10,Oc1ccc(F)cc1,1.73
11,C[C@]12C[C@H](O)[C@H]3[C@@H](CCC4=CC(=O)CC[C@@]43C)[C@@H]1CC[C@@H]2C(=O)CO [CORTICOSTERONE],3.85
12,CCCc1cccc(OC(C)=O)c1,3.28
13,"OCCCCCCO [1,6-HEXANEDIOL]",1.69
14,CC(=O)Oc1cccc(C#N)c1,1.49
15,COc1cc(NS(=O)(=O)c2ccc(N)cc2)nc(C)n1 [SULFAMETOMIDINE],2.33
16,c1ccc2c(c1)Sc1ccccc1S2,3.57
17,CCC1(c2ccccc2)C(=O)NC(=O)N(C)C1=O (stereo unspecified) [MEPHOBARBITAL],3.16
18,Cc1cccc(/C=C/C(=O)O)c1,2.93
19,CC(C(=O)O)c1ccc(-c2ccccc2)c(F)c1 (stereo unspecified) [FLURBIPROFEN],3.69
20,CCCC(C)C1(CC)C(=O)NC(=O)NC1=O (stereo unspecified) [PENTOBARBITAL],3.01
21,CC(C)(C)c1cccc(O)c1,4.41
22,CCCc1cccc(O)c1,3.28
23,Ic1ccc(I)cc1,3.17
